Measured values reported in BindingDB's records for doi:10.1021/jm0503751 (University of Dublin, 2006).

What was measured:
[1] = target: T1, Alpha-1B adrenergic receptor (Mus musculus, UniProt Q05D47)
T1 sequence (Q05D47 whole entry): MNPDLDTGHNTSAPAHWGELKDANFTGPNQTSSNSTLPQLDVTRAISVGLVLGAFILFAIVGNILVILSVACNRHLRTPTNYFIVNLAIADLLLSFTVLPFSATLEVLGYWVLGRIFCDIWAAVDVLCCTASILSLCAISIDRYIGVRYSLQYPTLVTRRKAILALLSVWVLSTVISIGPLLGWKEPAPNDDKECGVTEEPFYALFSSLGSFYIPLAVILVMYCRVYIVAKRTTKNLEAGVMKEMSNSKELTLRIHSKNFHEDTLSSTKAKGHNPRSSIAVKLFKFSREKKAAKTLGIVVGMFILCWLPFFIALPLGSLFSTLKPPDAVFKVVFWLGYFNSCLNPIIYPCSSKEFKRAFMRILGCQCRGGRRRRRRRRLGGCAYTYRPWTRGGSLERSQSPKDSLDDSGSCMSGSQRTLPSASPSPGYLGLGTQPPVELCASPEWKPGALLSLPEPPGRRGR

[2] = target: T2, Alpha-1A adrenergic receptor (Homo sapiens, UniProt P35348)
T2 sequence (P35348 whole entry): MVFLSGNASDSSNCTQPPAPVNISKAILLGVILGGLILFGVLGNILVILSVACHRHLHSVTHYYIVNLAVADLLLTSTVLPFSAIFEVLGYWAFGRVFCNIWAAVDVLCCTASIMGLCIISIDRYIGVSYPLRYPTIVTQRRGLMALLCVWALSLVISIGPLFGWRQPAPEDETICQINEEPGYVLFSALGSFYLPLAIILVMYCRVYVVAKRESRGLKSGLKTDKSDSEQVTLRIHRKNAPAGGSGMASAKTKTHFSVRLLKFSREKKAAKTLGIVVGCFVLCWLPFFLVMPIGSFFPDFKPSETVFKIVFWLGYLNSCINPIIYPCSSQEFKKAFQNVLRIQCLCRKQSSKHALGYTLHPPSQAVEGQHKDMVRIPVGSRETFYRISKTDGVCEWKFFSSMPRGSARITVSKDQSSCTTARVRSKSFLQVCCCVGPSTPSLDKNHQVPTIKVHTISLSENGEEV

| Compound | Ki [1] [µM] | Ki [2] [µM] |
| --- | --- | --- |
| Cc1c[nH]c(=O)n(CCCN2CCN(c3ccc(F)cc3OCC(F)(F)F)CC2)c1=O | 0.079 | 0.1 |
| CC(C)(Cc1c[nH]c2ccc(Cl)cc12)NCCOc1ccccc1OCC1CC1 | 0.016 | 0.016 |
| COc1cc2nc(N(C)CCCNC(=O)C3CCCO3)nc(N)c2cc1OC (centres undefined) [N-{3-[(4-amino-6,7-dimethoxyquinazolin-2-yl)(methyl)amino]propyl}tetrahydrofuran-2-carboxamide] | 0.01 |  |
| COc1ccccc1N1CCN(CCCNc2c(C)c(=O)n(C)c(=O)n2C)CC1 [Urapidil-5-methyl] | 0.04 | 0.01 |

Continued, values first:

| Ki [1] [µM] | Ki [2] [µM] | Compound |
| --- | --- | --- |
| 0.002 |  | COc1cc2nc(N3CCN(C(=O)C4CCCO4)CC3)nc(N)c2cc1OC (centres undefined) [6,7-dimethoxy-2-[4-(tetrahydrofuran-2-ylcarbonyl)piperazin-1-yl]quinazolin-4-amine] |
| 0.001 |  | COc1cc2nc(N3CCN(C(=O)C4COc5ccccc5O4)CC3)nc(N)c2cc1OC (centres undefined) [UK 33,274] |
